Drawing on patent US12673961B2 (Agios Pharmaceuticals, Inc., priority 2022, dated 2026), this text covers AC50 for 13 compounds.

The target in one assay is T1, human PAH with the R408W mutation (Homo sapiens, UniProt P00439, R408W).
T1 construct: expressed in transfected cells
T1 sequence (P00439 1-452 R408W): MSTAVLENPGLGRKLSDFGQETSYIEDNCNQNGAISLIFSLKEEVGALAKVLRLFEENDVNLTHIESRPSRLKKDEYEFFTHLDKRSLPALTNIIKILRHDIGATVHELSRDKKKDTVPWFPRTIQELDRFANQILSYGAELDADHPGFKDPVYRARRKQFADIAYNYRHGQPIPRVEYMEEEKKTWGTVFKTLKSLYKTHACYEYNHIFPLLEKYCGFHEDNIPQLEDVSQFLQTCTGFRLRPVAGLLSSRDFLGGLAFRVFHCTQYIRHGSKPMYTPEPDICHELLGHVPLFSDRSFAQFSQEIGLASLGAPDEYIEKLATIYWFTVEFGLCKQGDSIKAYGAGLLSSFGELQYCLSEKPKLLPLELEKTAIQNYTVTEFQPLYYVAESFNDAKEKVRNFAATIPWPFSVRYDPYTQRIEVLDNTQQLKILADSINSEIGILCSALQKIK
Briefly: Cell Based Phenylalanine Flux Assay.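 Also: Ten-point dose curve from 2-fold serial dilutions, run in duplicate at 0.5% DMSO final, tracer step used 20 µM sepiapterin and 800 µM labeled phenylalanine.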 More on the design: scale not given here. As to conditions: A375 cells expressing R408W PAH; 24 hrs with compound, then 20 μM sepiapterin and 800 μM 13C9,15N-Phenylalanine for 4 hours; 13C-Tyrosine in media by LC-MS; average where tested multiple times.
With `COc1cccn2nc([C@@H]3c4nc[nH]c4CCN3C(=O)c3ccnn3C3CC3)cc12` (single isomer, unassigned), the AC50 result is listed as “E, E”.

The same assay, now with this note: A375 cells expressing human R408W PAH; 24 hrs compound incubation; 13C-Tyrosine by LC-MS; average where tested multiple times; read-out: AC50.
On to `Cc1ncccc1-c1nnc(C(=O)N2CCc3[nH]cnc3[C@@H]2c2cc3c(C(F)(F)F)cccn3n2)o1` [Example 1305, (R)-(5-(2-methylpyridin-3-yl)-1,3,4-oxadiazol-2-yl)(4-(4-(trifluoromethyl)pyrazolo [1,5-a]pyridin-2-yl)-6,7-dihydro-1H-imidazo[4,5-c]pyridin-5(4H)-yl)methanone], for which the AC50 lay within 1000 to 5000 nM. Consider `Cc1cccc2cc([C@H]3c4nc[nH]c4CCN3C(=O)c3nnc(-c4ccccn4)o3)nn12` [Example 799, (R)-(4-(7-methylpyrazolo [1,5-a]pyridin-2-yl)-6,7-dihydro-1H-imidazo[4,5-c]pyridin-5(4H)-yl)(5-(pyridin-2-yl)-1,3,4-oxadiazol-2-yl) methanone], for which the AC50 is above 5000 nM. On to `O=C(c1nnc(-c2cnccn2)o1)N1CCc2[nH]cnc2[C@@H]1c1cc2c(Cl)cccn2n1` [Example 1333, (R)-(4-(4-chloropyrazolo [1,5-a]pyridin-2-yl)-6,7-dihydro-1H-imidazo[4,5-c]pyridin-5(4H)-yl)(5-(pyrazin-2-yl)-1,3,4-oxadiazol-2-yl)methanone], for which the half-maximal activity concentration (AC50) lay within 1000 to 5000 nM. As to `Cc1ncccc1-c1nnc(C(=O)N2CCc3[nH]cnc3[C@H]2c2cc3ccccn3n2)o1` [Example 1364], the AC50 is below 500 nM.

Staying with this assay, now noted: A375 cells expressing human R408W PAH; 24 hrs with compound, then sepiapterin and 13C9,15N-Phenylalanine for 4 hours; 13C-Tyrosine by LC-MS; average where tested multiple times; read-out: AC50.
As for `Cc1nnc(C(=O)N2CCc3[nH]cnc3[C@H]2c2cc3c(OC(F)(F)F)cccn3n2)o1` [Example 2218, (S)-(5-methyl-1,3,4-oxadiazol-2-yl)(4-(4-(trifluoromethoxy)pyrazolo [1,5-a]pyridin-2-yl)-6,7-dihydro-1H-imidazo[4,5-c]pyridin-5(4H)-yl)methanone], the AC50 fell in the range of 1000 to 5000 nM. Consider `Clc1cccn2nc([C@H]3c4nc[nH]c4CCN3c3nnc(-c4cccnc4)o3)cc12` [Example 2263, (R)-2-(4-(4-chloropyrazolo [1,5-a]pyridin-2-yl)-1,4,6,7-tetrahydro-5H-imidazo[4,5-c]pyridin-5-yl)-5-(pyridin-3-yl)-1,3,4-oxadiazole], for which the AC50 is above 5000 nM. For the compound `FC(F)c1nnc(N2CCc3[nH]cnc3[C@H]2c2cc3c(C4CC4)cccn3n2)o1` [Example 2167], the AC50 is below 500 nM. As to `CC(C)c1nnc(N2CCc3[nH]cnc3C2c2cc3c(F)cccn3n2)o1` (stereo in doubt) [Example 2323, (S)-2-(4-(4-fluoropyrazolo [1,5-a]pyridin-2-yl)-1,4,6,7-tetrahydro-5H-imidazo [4,5-c]pyridin-5-yl)-5-isopropyl-1,3,4-oxadiazole], the AC50 lay within 500 to 1000 nM. The same measure, in the same setting: then `c1cnc(N2CCc3[nH]cnc3[C@H]2c2cc3ccccn3n2)nc1` [Example 1592, (S)-4-(pyrazolo[1,5-a]pyridin-2-yl)-5-(pyrimidin-2-yl)-4,5,6,7-tetrahydro-1H-imidazo[4,5-c]pyridine], with 500 to 1000 nM; and `Fc1cccn2nc([C@H]3c4nc[nH]c4CCN3c3nnc(C(F)(F)F)o3)cc12` [Example 1822, (R)-2-(4-(4-fluoropyrazolo [1,5-a]pyridin-2-yl)-6,7-dihydro-1H-imidazo [4,5-c]pyridin-5(4H)-yl)-5-(trifluoromethyl)-1,3,4-oxadiazole], with above 5000 nM; and `Cc1ncccc1-c1nnc(N2CCc3[nH]cnc3[C@H]2c2cc3c(C(F)F)cccn3n2)o1` [Example 2210, (S)-2-(4-(4-(difluoromethyl)pyrazolo[1,5-a]pyridin-2-yl)-1,4,6,7-tetrahydro-5H-imidazo [4,5-c]pyridin-5-yl)-5-(2-methylpyridin-3-yl)-1,3,4-oxadiazole], with 1000 to 5000 nM. Take `FC(F)c1cccc2cc([C@H]3c4nc[nH]c4CCN3c3nnc(-c4ccccn4)o3)nn12` [Example 1627, (R)-2-(4-(7-(difluoromethyl)pyrazolo[1,5-a]pyridin-2-yl)-6,7-dihydro-1H-imidazo [4,5-c]pyridin-5(4H)-yl)-5-(pyridin-2-yl)-1,3,4-oxadiazole]: the AC50 is above 5000 nM.
